In patent US7205306B2, “Substituted pyrazinones, pyridines and pyrimidines as corticotropin releasing factor ligands” (Bristol-Myers Squibb Pharma Company, priority 2001, dated 2007) one finds melting point data, which are given here for 32 compounds.

SMILES strings stand for the structures. Values joined by “and” are separate entries in the source; they are usually repeats but may differ in a detail not shown here. Identical values can stand only once. Counter-ions that a name gives are not always drawn.

Broadly, the melting point is the temperature, or range, at which the solid turns liquid. The compound `CCC(CC)n1cc(Cl)nc(N2CCc3cc(OC)cc(C)c32)c1=O` (as salt: hydrochloride) [Example 431, 5-Chloro-1-(1-ethylpropyl)-3-(5-methoxy-7-methyl-2,3-dihydro-1H-indol-1-yl)-2(1H)-pyrazinone] had a melting point of 164 to 165 °C.

As for `CCC(CC)n1cc(Cl)nc(N2CCc3cc(OC)cc(Br)c32)c1=O` (as salt: hydrochloride) [Example 441, 3-(7-Bromo-5-methoxy-2,3-dihydro-1H-indol-1-yl)-5-chloro-1-(1-ethylpropyl)-2(1H)-pyrazinone], the melting point is 130 to 132 °C.

`CCC(CC)n1cc(C)nc(N2CCc3cc(OC)cc(C)c32)c1=O` (as salt: hydrochloride) [Example 481, 3-(5-Methoxy-7-methyl-2,3-dihydro-1H-indol-1-yl)-1-(1-ethylpropyl)-5-methyl-2(1H)-pyrazinone] returned a melting point of 138 to 140 °C.

`CCC(C)n1cc(Cl)nc(N2CCc3cc(OC)cc(Cl)c32)c1=O` (centres unmarked) (as salt: hydrochloride) [Example 501, 5-Chloro-3-(7-chloro-5-methoxy-2,3-dihydro-1H-indol-1-yl)-1-(1-methylpropyl)-2(1H)-pyrazinone] came in with a melting point of 143 to 145 °C.

In turn, `CCC(C)n1cc(Cl)nc(N2CCc3cc(OC)cc(Br)c32)c1=O` (centres unmarked) (as salt: hydrochloride) [Example 502, 3-(7-Bromo-5-methoxy-2,3-dihydro-1H-indol-1-yl)-5-chloro-1-(1-methylpropyl)-2(1H)-pyrazinone] came in with a melting point of 155 to 157 °C.

`CCC(C)n1cc(Cl)nc(N2CCc3cc(OC)cc(C)c32)c1=O` (centres unmarked) (as salt: hydrochloride) [Example 503, 5-Chloro-3-(5-methoxy-7-methyl-2,3-dihydro-1H-indol-1-yl)-1-(1-methylpropyl)-2(1H)-pyrazinone] displayed a melting point of 176 to 178 °C.

In turn, `CCC(CC)n1cc(Br)nc(N2CCc3cc(OC)cc(Br)c32)c1=O` (as salt: hydrochloride) [Example 505, 5-Bromo-3-(7-bromo-5-methoxy-2,3-dihydro-1H-indol-1-yl)-1-(1-ethylpropyl)-2(1H)-pyrazinone] yielded a melting point of 133 to 135 °C.

As for `CCC(CC)n1cc(Br)nc(N2CCc3cc(OC)cc(C)c32)c1=O` (as salt: hydrochloride) [Example 506, 5-Bromo-1-(1-ethylpropyl)-3-(5-methoxy-7-methyl-2,3-dihydro-1H-indol-1-yl)-2(1H)-pyrazinone], the melting point lay within 152 to 154 °C.

The compound `CC[C@H](C1CC1)n1cc(Cl)nc(N2CCc3cc(OC)cc(Cl)c32)c1=O` (as salt: hydrochloride) [Example 508, 5-Chloro-3-(7-chloro-5-methoxy-2,3-dihydro-1H-indol-1-yl)-1-[(1R)-1-cyclopropylpropyl]-2(1H)-pyrazinone] gave a melting point of 118 to 120 °C.

Turning to `CC[C@H](C1CC1)n1cc(Cl)nc(N2CCc3cc(OC)cc(Br)c32)c1=O` (as salt: hydrochloride) [Example 509, 3-(7-Bromo-5-methoxy-2,3-dihydro-1H-indol-1-yl)-5-chloro-1-[(1R)-1-cyclopropylpropyl]-2(1H)-pyrazinone], the melting point is 138 to 140 °C.

In turn, `CC[C@H](C1CC1)n1cc(Cl)nc(N2CCc3cc(OC)cc(C)c32)c1=O` (as salt: hydrochloride) [Example 510, 5-Chloro-1-[(1R)-1-cyclopropylpropyl]-3-(5-methoxy-7-methyl-2,3-dihydro-1H-indol-1-yl)-2(1H)-pyrazinone] yielded a melting point of 160 to 162 °C.

In turn, `CC[C@@H](C1CC1)n1cc(Cl)nc(N2CCc3cc(OC)cc(Cl)c32)c1=O` (as salt: hydrochloride) [Example 514, 5-Chloro-3-(7-chloro-5-methoxy-2,3-dihydro-1H-indol-1-yl)-1-[(1S)-1-cyclopropylpropyl]-2(1H)-pyrazinone] returned a melting point of 128 to 130 °C.

`CC[C@@H](C1CC1)n1cc(Cl)nc(N2CCc3cc(OC)cc(Br)c32)c1=O` (as salt: hydrochloride) [Example 515, 3-(7-Bromo-5-methoxy-2,3-dihydro-1H-indol-1-yl)-5-chloro-1-[(1S)-1-cyclopropylpropyl]-2(1H)-pyrazinone] displayed a melting point of 138 to 140 °C.

For `CC[C@@H](C1CC1)n1cc(Cl)nc(N2CCc3cc(OC)cc(C)c32)c1=O` (as salt: hydrochloride) [Example 516, 5-Chloro-1-[(1S)-1-cyclopropylpropyl]-3-(5-methoxy-7-methyl-2,3-dihydro-1H-indol-1-yl)-2(1H)-pyrazinone], the melting point fell in the range of 156 to 158 °C.

Compound `CC[C@H](COC)n1cc(Cl)nc(N2CCc3cc(OC)cc(Br)c32)c1=O` (as salt: hydrochloride) [Example 523, 3-(7-Bromo-5-methoxy-2,3-dihydro-1H-indol-1-yl)-5-chloro-1-[(1R)-1-(methoxymethyl)propyl]-2(1H)-pyrazinone] showed a melting point of 102 to 104 °C.

In the case of `CC[C@H](COC)n1cc(Br)nc(N2CCc3cc(OC)cc(Br)c32)c1=O` (as salt: hydrochloride) [Example 525, 5-Bromo-3-(7-bromo-5-methoxy-2,3-dihydro-1H-indol-1-yl)-1-[(1R)-1-(methoxymethyl)propyl]-2(1H)-pyrazinone], the melting point fell in the range of 122 to 123 °C.

For `CC[C@H](COC)n1cc(Br)nc(N2CCc3cc(OC)cc(C)c32)c1=O` (as salt: hydrochloride) [Example 526, 5-Bromo-3-(5-methoxy-7-methyl-2,3-dihydro-1H-indol-1-yl)-1-[(1R)-1-(methoxymethyl)propyl]-2(1H)-pyrazinone], the melting point lay within 116 to 118 °C.

In the case of `CC[C@@H](COC)n1cc(Cl)nc(N2CCc3cc(OC)cc(Br)c32)c1=O` (as salt: hydrochloride) [Example 529, 3-(7-Bromo-5-methoxy-2,3-dihydro-1H-indol-1-yl)-5-chloro-1-[(1S)-1-(methoxymethyl)propyl]-2(1H)-pyrazinone], the melting point lay in the range of 100 to 102 °C.

In the case of `COc1cc(C)c2c(c1)CCN2c1nc(Cl)cn(C(C(C)C)C(C)C)c1=O` (as salt: hydrochloride) [Example 532], the melting point lay within 94 to 96 °C.

With `COc1cc(C)c2c(c1)CCN2c1nc(Cl)cn(CCSC)c1=O` (as salt: hydrochloride) [Example 534, 5-Chloro-3-(5-methoxy-7-methyl-2,3-dihydro-1H-indol-1-yl)-1-[2-(methylthio)ethyl]-2(1H)-pyrazinone], the melting point was 111 to 113 °C.

In the case of `CC[C@H](COC)n1cc(Cl)nc(N2CCc3cc(OC)cc(Cl)c32)c1=O` (as salt: hydrochloride) [Example 544, 5-Chloro-3-(7-chloro-5-methoxy-2,3-dihydro-1H-indol-1-yl)-1-[(1R)-1-(methoxymethyl)propyl]-2(1H)-pyrazinone], the melting point was in the range of 126 to 128 °C.

`CC[C@H](COC)n1cc(Cl)nc(N2CCc3cc(OC)cc(C)c32)c1=O` (as salt: hydrochloride) [Example 545, 5-Chloro-3-(5-methoxy-7-methyl-2,3-dihydro-1H-indol-1-yl)-1-[(1R)-1-(methoxymethyl)propyl]-2(1H)-pyrazinone] showed a melting point of 62 to 64 °C.

With `CC[C@@H](COC)n1cc(Br)nc(N2CCc3cc(OC)cc(C)c32)c1=O` (as salt: hydrochloride) [Example 549, 5-Bromo-3-(5-methoxy-7-methyl-2,3-dihydro-1H-indol-1-yl)-1-[(1S)-1-(methoxymethyl)propyl]-2(1H)-pyrazinone], the melting point fell in the range of 115 to 117 °C.

In turn, `CCC(CC)Nc1cc(N2CCc3cc(Cl)cc(Cl)c32)nc(C)n1` [Example 1, 4-(5,7-dichloro-2,3-dihydro-1H-indol-1-yl)-6-(1-ethylpropylamino)-2-methylpyrimidine] yielded a melting point of 116 to 117 °C.

Turning to `CCC(CC)Nc1nc(C)nc(N2CCc3cc(Cl)cc(Cl)c32)c1Cl` [Example 2, 5-chloro-4-(5,7-dichloro-2,3-dihydro-1H-indol-1-yl)-6-(1-ethylpropylamino)-2-methylpyrimidine], the melting point was 132 to 134 °C.

Compound `CCC(CC)Nc1nc(C)nc(N2CCc3cc(Cl)cc(Cl)c32)c1Br` [Example 3, 5-bromo-4-(5,7-dichloro-2,3-dihydro-1H-indol-1-yl)-6-(1-ethylpropylamino)-2-methylpyrimidine] had a melting point of 136 to 138 °C.

In turn, `CCC(CC)Nc1nc(C)nc(N2CCc3cc(Cl)cc(Cl)c32)c1C=O` [Example 6, 4-(5,7-dichloro-2,3-dihydro-1H-indol-1-yl)-6-(1-ethylpropylamino)-5-formyl-2-methylpyrimidine] displayed a melting point of 182 to 184 °C.

For the compound `CCC(CC)Nc1nc(C)nc(N2CCc3cc(Cl)cc(Cl)c32)c1CO` [Example 7, 4-(5,7-dichloro-2,3-dihydro-1H-indol-1-yl)-6-(1-ethylpropylamino)-5-hydroxymethyl-2-methylpyrimidine], the melting point was in the range of 150 to 152 °C.

For `CCC(CC)Nc1nc(C)nc(N2CCc3cc(OC)cc(Cl)c32)c1C#N` [Example 59, 4-(7-chloro-5-methoxy-2,3-dihydro-1H-indol-1-yl)-5-cyano-6-(1-ethylpropylamino)-2-methylpyrimidine], the melting point was 189 to 190 °C and 192 to 194 °C.

`CCC(CC)Nc1nc(C)nc(N2CCc3cc(OC)cc(Cl)c32)c1C=O` [Example 60, 4-(7-chloro-5-methoxy-2,3-dihydro-1H-indol-1-yl)-6-(1-ethylpropylamino)-5-formyl-2-methylpyrimidine]: the melting point lay within 178 to 179 °C.

On to `CCC(COC)Nc1nc(C)nc(N2CCc3cc(OC)cc(Cl)c32)c1I` (centres unmarked) [Example 74, 4-(7-chloro-5-methoxy-2,3-dihydro-1H-indol-1-yl)-5-iodo-6-[1-(1-methoxymethyl)propylamino]-2-methylpyrimidine], for which the melting point fell in the range of 150 to 152 °C.

Compound `CCC(COC)Nc1nc(C)nc(N2CCc3cc(OC)cc(Cl)c32)c1C#N` (centres unmarked) [Example 75, 4-(7-chloro-5-methoxy-2,3-dihydro-1H-indol-1-yl)-5-cyano-6-[1-(1-methoxymethyl)propylamino]-2-methylpyrimidine] came in with a melting point of 182 to 183 °C.
